This note sets out measurements from patent US8450494B2, “Disubstituted benzamide derivatives as glucokinase (GK) activators” (Cadila Healthcare Limited, priority 2010, dated 2013).

For this test, the target named is T1, glucokinase (GK) enzyme (Homo sapiens, UniProt P35557).
T1 sequence (P35557 1-465): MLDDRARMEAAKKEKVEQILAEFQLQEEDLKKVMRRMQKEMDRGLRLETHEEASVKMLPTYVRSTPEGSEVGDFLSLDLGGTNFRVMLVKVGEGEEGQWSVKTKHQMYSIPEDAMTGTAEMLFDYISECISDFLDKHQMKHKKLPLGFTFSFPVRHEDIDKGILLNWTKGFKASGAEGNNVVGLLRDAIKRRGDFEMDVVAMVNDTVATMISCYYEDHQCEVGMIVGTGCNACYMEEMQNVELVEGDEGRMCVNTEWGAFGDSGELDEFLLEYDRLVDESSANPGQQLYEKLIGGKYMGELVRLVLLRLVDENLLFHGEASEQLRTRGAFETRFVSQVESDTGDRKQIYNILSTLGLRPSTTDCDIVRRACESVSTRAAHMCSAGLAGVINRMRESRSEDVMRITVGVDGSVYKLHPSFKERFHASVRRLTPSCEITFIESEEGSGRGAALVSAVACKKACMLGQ
Put plainly: In-vitro glucokinase (GK) enzyme activation assay (coupled with glucose-6-phosphate dehydrogenase, absorbance at 340). It counts as biochemical. As to conditions: glucose 2.5 mM, ATP 1 mM; for activity at 0.1 µM / activity at 1 µM / activity at 5 µM / activity at 10 µM: read-out: % of GK activity wrt DMSO; for EC50: GK activation. On the procedure: The compound of the invention was incubated with glucokinase (GK) enzyme (0.2 units) for 10 minutes in assay buffer at 26° C. After incubation, addition of glucose-6-phosphate dehydrogenase (2.5 units), ATP (1 mM) and glucose (2.5 mM). Absorbance is measured at 340 nm for 15 minutes with 10 second interval using UV transparent plate in kinetic mode on Spectramax-190 at 30° C.

Molecules are shown by their SMILES.

As to `COCC(C)Oc1cc(Oc2ccc(-c3nnc(CC(C)C)o3)cc2)cc(C(=O)Nc2nccs2)c1` (centres unmarked) [Example 2.22, 3-(4-(5-Isobutyl-1,3,4-oxadiazol-2-yl)phenoxy)-5-((1-methoxypropan-2-yl)oxy)-N-(thiazol-2-yl)benzamide], the activity at 0.1 µM (compound 0.1 uM) came out at 153%. In addition, the activity at 1 µM (compound 1 uM) is 323%. For the same molecule, for the setting “compound 5 uM”, the activity at 5 µM was 436%. The activity at 10 µM (compound 10 uM) was 418%.
Turning to `COCC(C)Oc1cc(Oc2ccc(-c3nnc(C)o3)cc2)cc(C(=O)Nc2nc(C(=O)O)cs2)c1` (centres unmarked) [Example 2.17, 2-{3-[(1-Methoxypropan-2-yl)oxy]-5-[4-(5-methyl-1,3,4-oxadiazol-2-yl)phenoxy]benzamido}thiazole-4-carboxylic acid], the activity at 0.1 µM (compound 0.1 uM) came to 113%. In addition, the activity at 1 µM (compound 1 uM) is 170%. Also, the activity at 5 µM (compound 5 uM) was 306%. In addition, the activity at 10 µM (compound 10 uM) stood at 350%.
As to `C=CCCOc1cc(Oc2ccc(-c3nnc(C)o3)cc2)cc(C(=O)Nc2nccs2)c1` [Example 1.2, 3-(But-3-enyloxy)-5-(4-(5-methyl-1,3,4-oxadiazol-2-yl)phenoxy)-N-(thiazol-2-yl)benzamide], the concentration giving a half-maximal response (EC50) (as a rule, the concentration giving half of the maximal effect) was 0.081 µM. Moreover, the activity at 0.1 µM (compound 0.1 uM) is 167%. The activity at 1 µM (compound 1 uM) was 229%. Also, where the note is “compound 5 uM”, the activity at 5 µM was 242%. The activity at 10 µM (compound 10 uM) worked out at 244%.
For the molecule `Cc1nnc(-c2ccc(Oc3cc(OCC4CCCCC4)cc(C(=O)Nc4nccs4)c3)cc2)o1` [Example 2.2, 3-(Cyclohexylmethoxy)-5-(4-(5-methyl-1,3,4-oxadiazol-2-yl)phenoxy)-N-(thiazol-2-yl)benzamide], the EC50 came out at 0.316 µM. Further, the activity at 0.1 µM (compound 0.1 uM) came out at 146%. Further, the activity at 1 µM (compound 1 uM) came out at 178%. For the same molecule, under “compound 5 uM”, the activity at 5 µM was found to be 193%. The activity at 10 µM (compound 10 uM) is 192%.
Regarding `Cc1csc(NC(=O)c2cc(OCC3CCCCC3)cc(Oc3ccc(-c4nnc(C)o4)cc3)c2)n1` [Example 2.3, 3-(Cyclohexylmethoxy)-5-(4-(5-methyl-1,3,4-oxadiazol-2-yl)phenoxy)-N-(4-methylthiazol-2-yl)benzamide], where the note is “compound 0.1 uM”, the activity at 0.1 µM was 123%. Also, the activity at 1 µM (compound 1 uM) was 137%. Further, the activity at 5 µM (compound 5 uM) came to 148%. Besides, the activity at 10 µM (compound 10 uM) was 150%.
Consider `COCC(C)Oc1cc(Oc2ccc(-c3nnc(C)o3)cc2)cc(C(=O)Nc2nccs2)c1` (centres unmarked) [Example 1.1, 3-(1-Methoxypropan-2-yloxy)-5-(4-(5-methyl-1,3,4-oxadiazol-2-yl)phenoxy)-N-(thiazol-2-yl)benzamide], for which the EC50 was found to be 0.021 µM. For the same molecule, the activity at 0.1 µM (compound 0.1 uM) was found to be 276%. In addition, the activity at 1 µM (compound 1 uM) is 309%. In addition, for the setting “compound 5 uM”, the activity at 5 µM was 316%. Besides, under “compound 10 uM”, the activity at 10 µM came out at 309%.
`CCc1nnc(-c2ccc(Oc3cc(OC(C)COC)cc(C(=O)Nc4nccs4)c3)cc2)o1` (centres unmarked) [Example 2.25, 3-(4-(5-Ethyl-1,3,4-oxadiazol-2-yl)phenoxy)-5-((1-methoxypropan-2-yl)oxy)-N-(thiazol-2-yl)benzamide]: the activity at 0.1 µM (compound 0.1 uM) is 224%. The activity at 1 µM (compound 1 uM) turned out to be 384%. Besides, the activity at 5 µM (compound 5 uM) was 439%. Where the note is “compound 10 uM”, the activity at 10 µM is 418%.
For the molecule `Cc1nnc(-c2ccc(Oc3cc(OCC45CC6CC(CC(C6)C4)C5)cc(C(=O)Nc4nccs4)c3)cc2)o1` [Example 1.9, 3-(4-(5-Methyl-1,3,4-oxadiazol-2-yl)phenoxy)-5-(admantanemethoxy)-N-(thiazol-2-yl)benzamide], the “% of GK activity wrt DMSO” value runs as follows: (compound 0.1 uM) 121.83%; (compound 1 uM) 137.7%; (compound 5 uM) 141.3%; (compound 10 uM) 153.4%.
For the molecule `COC[C@H](C)Oc1cc(Oc2ccc(-c3nnc(C)o3)cc2)cc(C(=O)Nc2ncc(C#N)s2)c1` [Example 2.42, (S)—N-(5-Cyanothiazol-2-yl)-3-((1-methoxypropan-2-yl)oxy)-5-(4-(5-methyl-1,3,4-oxadiazol-2-yl)phenoxy)benzamide], the activity at 0.1 µM (compound 0.1 uM) worked out at 126%. Also, the activity at 1 µM (compound 1 uM) was found to be 223%. Also, the activity at 5 µM (compound 5 uM) worked out at 306%. For the same molecule, the activity at 10 µM (compound 10 uM) stood at 333%.
As for `COCC(C)Oc1cc(Oc2ccc(-c3nnc(C)o3)cc2)cc(C(=O)Nc2nc(CC(=O)O)cs2)c1` (centres unmarked) [Example 2.8], the “% of GK activity wrt DMSO” value is 239.5% (compound 0.1 uM), 323.6% (compound 1 uM), 336.3% (compound 5 uM) and 328.9% (compound 10 uM).
Take `C=CCOc1cc(Oc2ccc(-c3nnc(C)o3)cc2)cc(C(=O)Nc2ncc(C)s2)c1` [Example 2.14, 3-(Allyloxy)-5-(4-(5-methyl-1,3,4-oxadiazol-2-yl)phenoxy)-N-(5-methylthiazol-2-yl)benzamide]: the activity at 0.1 µM (compound 0.1 uM) is 116%. Also, the activity at 1 µM (compound 1 uM) came to 184%. Also, the activity at 5 µM (compound 5 uM) was 241%. For the same molecule, the activity at 10 µM (compound 10 uM) was 215%.
With `COCC(C)Oc1ccc(Oc2ccc(-c3nnc(C)o3)cc2)cc1C(=O)Nc1nccs1` (centres unmarked) [Example 1.3, 2-(1-Methoxypropan-2-yloxy)-5-(4-(5-methyl-1,3,4-oxadiazol-2-yl)phenoxy)-N-(thiazol-2-yl)benzamide], where the note is “compound 0.1 uM”, the activity at 0.1 µM turned out to be 99.8%. Moreover, the activity at 1 µM (compound 1 uM) was found to be 96.8%. For the same molecule, under “compound 5 uM”, the activity at 5 µM was found to be 110%. The activity at 10 µM (compound 10 uM) was 107%.
`C=CCOc1cc(Oc2ccc(-c3nnc(C)o3)cc2)cc(C(=O)Nc2nccs2)c1` [Example 2.4, 3-(Allyloxy)-5-(4-(5-methyl-1,3,4-oxadiazol-2-yl)phenoxy)-N-(thiazol-2-yl)benzamide] had an EC50 of 0.064 µM. Further, the activity at 0.1 µM (compound 0.1 uM) turned out to be 240%. The activity at 1 µM (compound 1 uM) was 284%. Also, under “compound 5 uM”, the activity at 5 µM turned out to be 324%. Also, the activity at 10 µM (compound 10 uM) turned out to be 311%.
In the same order, the values of `COC[C@H](C)Oc1cc(Oc2ccc(-c3nnc(C)o3)cc2)cc(C(=O)Nc2nccs2)c1` [Example 2.1, (S)-3-(1-Methoxypropan-2-yloxy)-5-(4-(5-methyl-1,3,4-oxadiazol-2-yl)phenoxy)-N-(thiazol-2-yl)benzamide] are 0.014 µM, 271%, 267%, 271% and 282%.
Turning to `COCC(C)Oc1cc(Oc2ccc(-c3nnc(C)o3)cc2)cc(C(=O)Nc2ncc(C(=O)O)s2)c1` (centres unmarked) [Example 2.18, 2-{3-[(1-Methoxypropan-2-yl)oxy]-5-[4-(5-methyl-1,3,4-oxadiazol-2-yl)phenoxy]benzamido}thiazole-5-carboxylic acid], under “compound 0.1 uM”, the activity at 0.1 µM is 105%. For the same molecule, the activity at 1 µM (compound 1 uM) is 149%. Further, where the note is “compound 5 uM”, the activity at 5 µM worked out at 251%. Moreover, the activity at 10 µM (compound 10 uM) was 260%.
